Where “and” joins values, the source holds several entries; their conditions need not be identical. Equal entries are not always repeated. Peptide text beside a SMILES is read from it.
Tests used:
[1] = test system: Immortalized human astrocytes (P10251-IM); test: Protection of human astrocytes from hemin-induced injury (LDH release assay); assay type: cell-based; conditions: for % LDH Release (individual runs) / % LDH Release, Average: 24 hr pre-treatment: SPH 160 μM, oligopeptide 10 μM, collagen control 160 μM, then 30 μM hemin 6 hrs, scaled to 0.1% Triton X-100 lysis; for mortality of astrocytes after hemin: oligopeptide 10 μM pre-treatment, hemin-induced oxidative damage
Protocol: (§1) Immortalized human astrocytes (P10251-IM) were obtained from Innoprot, Spain and prepared under conditions recommended by the supplier. At 90% confluency, the P10251-IM cells were rinsed with 8 ml of DPBS and 2 ml of the T/E Solution (prepared as per Innoprot procedure), then added into an […] and gently rocked so that the P10251-IM cells would be completely covered. The flask was subsequently incubated at 37° C. for 2 minutes. Then 5 ml of fetal bovine serum (FBS) and the T/E solution from the flask were added into a 50 ml conical centrifuge tube. The flask was incubated for an additional 2 minutes, and the P10251-IM cells dislodged from the surface by gentle tapping. The P10251-IM cells were then transferred to the 50 ml conical centrifuge tube with 5 ml of TNS solution. The tube was centrifuged at 1000 rpm for 5 minutes. Then the P10251-IM cells were resuspended in the culture medium, counted, and plated in a poly-L-lysine-coated culture plate at 1×10^4 cell density. Cells were tested after they were incubated for 21 days in vitro.
(§2) Confluent P10251-IM cell cultures were washed and then pre-treated with medium alone, or medium supplemented with SPH (160 μM) or an oligopeptide (10 μM) for 24 hr at 37° C. Commercial collagen peptide (Vital Protein) at 160 μM concentration and sterile water were used as negative controls. The P10251-IM cells were subsequently treated with 30 μM hemin in serum-free medium consisting of MEM with 10 mM glucose (MEM10) for 6 hrs.
P10251-IM astrocyte cultures that were […] with 30 μM hemin sustained widespread cell injury. Cell viability was quantified using the lactate dehydrogenase (LDH) release assay as previously described (Chen and Regan, Curr Neurovasc Res, 2:189-196, 2005). Briefly, quantification of the protective effects of SPH and oligopeptides were assessed by determining the mean percentage LDH released, scaled to the complete lysis control culture which was treated with 0.1% Triton X-100 (considered to release 100% of culture LDH).

[2] = test system: H-Ferritin; test: H-Ferritin gene expression in hemin-treated astrocytes by qRT-PCR; assay type: cell-based, human; conditions: oligopeptide 10 μM; for H-Ferritin Fold Change, Average / H-Ferritin Fold Change (individual runs): SPH 160 μM, collagen control 160 μM, after 6 hr hemin; for H-Ferritin Fold Change (individual runs): GAPDH housekeeping, normalized to control wells
Protocol: as §1, §2
(§3) L-Ferritin and H-Ferritin gene expression were then quantified. Briefly, after 6 hr incubation with hemin, the astrocytes were lysed, and RNA was extracted using the Qiagen lipid mini kit. The expression of both genes (L-ferritin and H-ferritin) involved in iron homeostasis was assessed by qRT-PCR. Fold changes were calculated using the ΔCt method, using GAPDH as the housekeeping gene. Fold changes were normalized to expression levels in control wells. Experiments were run in triplicate.
(§4) The primers used for amplification of cDNA were: […]

[3] = test system: L-Ferritin; test: L-Ferritin gene expression in hemin-treated astrocytes by qRT-PCR; assay type: cell-based, human; conditions: SPH 160 μM, oligopeptide 10 μM, collagen control 160 μM, after 6 hr hemin; for L-Ferritin Fold Change (individual runs): GAPDH housekeeping, normalized to control wells
Protocol: as §1, §2, §3, §4

Structure (SMILES)	% LDH Release (individual runs) [1]	% LDH Release, Average [1]	mortality of astrocytes after hemin [1]	H-Ferritin Fold Change, Average [2]	H-Ferritin Fold Change (individual runs) [2]	increases in H-Ferritin gene expression [2]	L-Ferritin Fold Change, Average [3]	L-Ferritin Fold Change (individual runs) [3]
N=C(N)NCCC[C@H](NC(=O)[C@@H]1CCCN1)C(=O)N[C@@H](CCC(=O)O)C(=O)N[C@@H](CCC(=O)O)C(=O)N[C@@H](CO)C(=O)N[C@@H](CC(=O)O)C(=O)N[C@@H](CCCCN)C(=O)N1CCC[C@H]1C(=O)O [FT-007, PREESDKP] (H-PREESDKP-OH)	35% and 38% and 34%	36%	36%	3.3 fold	3.5 fold and 3.2 fold and 3.3 fold	3.3 fold	1.1 fold	1.1 fold and 1.2 fold and 1.0 fold
CSCC[C@H](NC(=O)[C@@H]1CCCN1C(=O)[C@H](CCCCN)NC(=O)[C@H](CC(=O)O)NC(=O)[C@H](CO)NC(=O)[C@H](CCC(=O)O)NC(=O)[C@H](CCC(=O)O)NC(=O)[C@@H](N)CCCNC(=N)N)C(=O)N[C@@H](Cc1ccc(O)cc1)C(=O)O [FT-006, REESDKPMY] (H-REESDKPMY-OH)	40% and 39% and 42%	40%	40%	3.0 fold	2.9 fold (2×) and 3.1 fold	3.0 fold	1.3 fold	1.3 fold
CC(C)C[C@H](NC(=O)[C@H](CCC(=O)O)NC(=O)CNC(=O)[C@H](CO)NC(=O)[C@H](CCC(=O)O)NC(=O)[C@H](CCC(=O)O)NC(=O)[C@@H](N)CCCNC(=N)N)C(=O)O [FT-008, REESGEL] (H-REESGEL-OH)	29% and 27% and 31%	29%	29%	4.2 fold	4.1 fold (2×) and 4.4 fold	4.0 fold	1.6 fold	1.8 fold and 1.6 fold and 1.5 fold

Source: US20250101061A1, “UPREGULATION OF FERRITIN HEAVY CHAIN 1 EXPRESSION” (HBC Immunology Inc., priority 2022, published 2025)
